# Experiments:
# [1] = Stress test: stability in premix mixture, stored at 40° C. and 70% humidity for 4 weeks, retention of vitamin content; assay type: physicochemical; conditions: for Retention Active ingredient content after 4-week premix test: Table 3c; for Retention Canthaxanthin after 4-week test: Table 5c
# Protocol: The stress test for the vitamins is configured such that specimens of 100 mg in each case of the formulation produced and 4 g of premix mixture are weighed into glass vessels. The premix mixture consists of 50% by weight of fine lime (particle size <1000 μm), 20% by weight of wheat bran (particle size <1000 μm), 20% by weight of 50% silica-supported choline chloride (particle size <1000 μm) and 10% by weight of trace element mixture (particle size 100-500 μm). The trace element mixture is composed of 46.78% by weight of FeSO4x7H2O (100-500 μm), 37.43% by weight of CuSO4x5H2O (100-500 μm), 11.79% by weight of ZnO (<500 μm), 3.61% by weight of MnO and 0.39% by weight of CoCO3. After addition of all ingredients, the specimens are mixed cautiously, with performance of the mixing mechanically or else by hand, and these specimens (A) are stored in a climate-controlled chamber at 40° C. and 70% humidity for 4 weeks. […]
# For this purpose, specimens each of 100 mg of the formulation produced and 4 g of premix mixture are weighed out in glass vessels (50 mL glass vials). The premix mixture consists of 50% by weight of fine lime (particle size <1000 μm), 20% by weight of wheat bran (particle size <1000 μm), 20% by weight of 50% silica-supported choline chloride (particle size <1000 μm) and 10% by weight of trace element mixture (particle size 100-500 μm), said trace element mixture consisting of 46.78% by weight of FeSO4x7H2O (100-500 μm), 37.43% by weight of CuSO4x5H2O (100-500 μm), 11.79% by weight of ZnO (<500 μm), 3.61% by weight of MnO and 0.39% by weight of CoCO3. After addition of all ingredients, the specimens are mixed cautiously, where the mixing can be performed mechanically or else by hand, and these specimens (A) are stored in a climate-controlled chamber at 40° C. and 70% humidity for 4 weeks. An identical test is conducted with a comparative sample (B) which is of identical composition but which comprises, rather than propyl gallate, the same amount of ethoxyquin. […] The ratio of the contents after (A2), (B2) and before the storage (A1) and (B1) are used here to calculate the retention (A2/A1) or (B2/B1) of the samples. For the formulations of the invention, a quotient (A2/A1):(B2/B1) of at least 0.75 is determined here. Preferably, for the formulations of the invention, a quotient of at least 1 is obtained.
# The stability of the particles thus produced was tested in a stress test. For this purpose, specimens each of 100 mg of the particles produced and 4 g of premix mixture were weighed into 50 mL glass bottles. The premix mixture consisted of 50% by weight of fine lime (particle size <1000 μm), 20% by weight of wheat bran (particle size <1000 μm), 20% by weight of 50% silica-supported choline chloride (particle size <1000 μm) and 10% by weight of trace element mixture (particle size 100-500 μm), and the trace element mixture of 46.78% by weight of FeSO4x7H2O (100-500 μm), 37.43% by weight of CuSO4x5H2O (100-500 μm), 11.79% by weight of ZnO (<500 μm), 3.61% by weight of MnO and 0.39% by weight of CoCO3. After addition of all ingredients, the specimens were carefully mixed by hand. These specimens were stored in a climate-controlled chamber at 40° C. and 70% air humidity for 4 weeks. […]
# [2] = Particle size after dissolution in water by photon correlation spectroscopy (Malvern Zetasizer Nano ZSP); assay type: physicochemical; conditions: dry powder with propyl gallate added to the dispersion (Examples 1, 3b, 3c, 3d), PCS
# Protocol: The particle size is determined by means of a Malvern Zetasizer Nano ZSP.
# 30 g of citranaxanthin were suspended in 240 g of isopropanol together with 1.1 g of ascorbyl palmitate and, with setting of the pressure-limiting valve to 30 bar, mixed continuously with 390 g of isopropanol in a mixing chamber A. At a metering rate of 6 L/h on the suspension side and of 9 L/h on the solvent side, a mixing temperature of 170° C. was established in the mixing chamber A. After a residence time of 0.3 second, the molecularly disperse solution was mixed in mixing chamber B with a solution of 32 g of gelatin, 71.4 g of sucrose and 50 g of glucose syrup in 4000 g of water at a throughput rate of 100 L/h. After the solvent had been removed under reduced pressure in a distillation apparatus, an active ingredient dispersion was obtained, to which 8 g of sunflower oil and 8 g of propyl gallate were added. The propyl gallate was predissolved here in 200 mL of water and adjusted to pH 7 with NaOH. Subsequently, the dispersion was converted to a stable, water-soluble dry powder by spray drying. After dissolution in water, by photon correlation spectroscopy (PCS), a particle size of 386 nm (standard deviation 142.5, polydispersity index PDI 0.185, D(95): 660 nm) was measured (Malvern Zetasizer Nano ZSP).
# [3] = as above; assay type: physicochemical; conditions: dry powder of Example 3e, PCS
# [4] = impurity from ethoxyquin preparation remaining in animal feed; cited from earlier work
structure (smiles),measurement,setting,value
CCOC(=O)/C(C)=C/C=C/C(C)=C/C=C/C=C(C)/C=C/C=C(C)/C=C/C1=C(C)CCCC1(C)C [C30 ester],Retention Active ingredient content after 4-week premix test,"[1]; propyl gallate 0% by wt., dispersion",6.7%
same,Retention Active ingredient content after 4-week premix test,"[1]; propyl gallate 2% by wt., dispersion",13.83%
same,Retention Active ingredient content after 4-week premix test,"[1]; propyl gallate 4% by wt., dispersion",42.7%
same,Retention Active ingredient content after 4-week premix test,"[1]; propyl gallate 6% by wt., dispersion",57.7%
same,Retention Active ingredient content after 4-week premix test,"[1]; propyl gallate 8% by wt., dispersion",64.1%
same,Retention Active ingredient content after 4-week premix test,"[1]; propyl gallate 10% by wt., dispersion",58.5%
same,Retention Active ingredient content after 4-week premix test,"[1]; propyl gallate 12% by wt., dispersion",54.3%
same,Retention Active ingredient content after 4-week test,"[1]; Table 3e, ethoxyquin 4% by wt., dispersion",28.6%
same,Retention Active ingredient content after 4-week test,"[1]; Table 3e, propyl gallate 4% by wt., dispersion",33.4%
same,Retention Active ingredient content after 4-week test,"[1]; Table 3e, propyl gallate 4% by wt., dispersion (pH adjustment before spraying from pH 8.5 to pH 6.8 with H2SO4)",39.8%
same,Retention Active ingredient content after 4-week test,"[1]; Table 3e, propyl gallate 6% by wt., dispersion",44.4%
same,Retention Active ingredient content after 4-week test,"[1]; Table 3e, propyl gallate 8% by wt., dispersion",43.4%
same,Retention Active ingredient content after 4-week test,"[1]; Table 4b, D,L-α tocopherol 4% by wt. (in active ingredient phase) + propyl gallate 4% by wt. (in protective colloid phase)",29.2%
same,Retention Active ingredient content after 4-week test,"[1]; Table 4b, mixed tocopherol 4% by wt. (in active ingredient phase) + propyl gallate 4% by wt. (in protective colloid phase)",57.5%
same,Retention Canthaxanthin after 4-week test,"[1]; propyl gallate 0% by wt., mixed tocopherol 4% by wt.",11%
same,Retention Canthaxanthin after 4-week test,"[1]; propyl gallate 4% by wt., mixed tocopherol 0% by wt.",42.7%
same,Retention Canthaxanthin after 4-week test,"[1]; propyl gallate 4% by wt., mixed tocopherol 4% by wt.",61.7%
same,particle size,[2],280 nm
same,polydispersity index PDI,[2],0.181
same,D(95),[3],683 nm
same,particle size,[3],373 nm
same,polydispersity index PDI,[3],0.203
CCOc1ccc(N)cc1 [p-phenetidine],mutagenicity,[4],possibly a mutagen

# Reference: patent US10835456B2, “Propyl gallate-containing vitamin preparations” (BASF SE, priority 2016, dated 2020)
